A short description of data set [1]: changing rate of blood pressure and heart rate by intravenous injection in anesthetized rats. The format is in vivo, Wister male rats. Particulars: Rattus norvegicus, 1 (mg/kg). The method, then:
(blood pressure, heart rate increasing action by intravenous injection) Wister male rats (8 weeks old) were used as test animals. The rats were applied to anesthesia by intraperitoneal administration with 1.25 g/kg of urethane. The blood pressure was determined by inserting a polyethylene tube into a femoral artery, which was connected with a pressure transducer. The heart rate was determined from R wave of electrocardiograms (ECG) induced by standard limb lead II with a tachometer. Each test compound was dissolved in ethanol and intravenously administered to rats in 1 mg/kg diluted with Ringer's solution just before use. The maximum concentration of ethanol was 2 percent. An ethanol-containing Ringer without any test compound was used as a control to confirm the influence of the ethanol in each experiment. Each changing rate (%) in the blood pressure and heart rate before and after administration was determined, and the average of 3-4 experiments was shown in Table 1. Changing rates of blood pressure and heart rate were determined in the same manner as described in Example 1 except that the test compounds 60, 61 and 62 were used in different concentrations instead of the test compounds 1-55.

Data set [2] in a line: progressing a breath (change rate of breath rate). Particulars: Rattus norvegicus, iv, tail vein, rats. In kind it is in vivo, Wister male rats. The method, then: Wister male rats (8 weeks old) were applied to anesthesia by intraperitoneal administration with 1.25 g/kg of urethane. A pick-up for breath was fixed on a top of a rat's nose, and the breath curve was recorded on a polygraph while the breath rate was counted with a tachometer.
Each test compound was dissolved in ethanol and administered to rats through a tale vein in 1 mg/kg as diluted with Ringer's solution just before use. The maximum concentration of ethanol was 2 percent. Ringers solution containing ethanol but not containing test compound was administered at every experiment as a control. The change rates (%) of the breath rate before and after administration were determined, and evaluated as progressing activity of breath.

Data set [3] in a line: recovery of blood pressure and heart rate of rats in hemorrhage shock. The format is in vivo, Wister male rats. Conditions: intravenous, dehematized rats. The method, then: (Recovery of blood pressure and heart rate of rats in hemorrhage shock)
Wister male rats (8 weeks old) were applied to anesthesia by subcutaneous injection with 1.5 g/kg of urethane. The blood pressure and heart rate were determined according to the same manner as in Example 1.
The rats were kept for 60 minutes in a room after a blood corresponding to 1.5% of the weight was removed.
13,14-dihydro-6,15-diketo-19-methyl-PGE1 ethyl ester (compound number 15) was dissolved in Ringer's solution (0.1 ml), and the solution was intravenously administered into the above dehematized rat. Ringer's solution was administered to a control group.
The recovery rates of the blood pressure and heart rate were obtained assuming the value at 60 minutes after dehematizing being 0% and the value before dehematizing being 100% respectively. In these FIGS. (1), (2) and (3) represent a dose of 1 mg/kg, dose of 0.5 mg/kg and control respectively.
The same procedure as the above except that the compounds of (7), (18) and (22) were used instead of the compound (15) was applied, and the effects are observed, the results of which are also shown in Table 3.

A short description of the next data set: acute toxicity LD50. The format is in vivo.
A short description of data set [4]: changes in blood flow rate in carotid, blood pressure and heart rate. The format is in vivo, Wister male rats. Conditions: 1 mg/kg, femoral artery, 4 experiments. The method, then:
Wister male rats (9 weeks old) were used.
The rats were applied to anesthesia by intraperitoneal administration with 1.25 g/kg of urethane. The blood flow rate in carotid was determined by a stromuhr. The blood pressure and heart rate were determined according to the same manner as in Example 1.
13,14-dihydro-6,15-diketo-19-methyl-PGE1 ethyl ester (sample number: 15) was dissolved in a small amount of ethanol, and then diluted with Ringer's solution more than 50 times. About 0.1 ml (1 mg drag/kg rat) of the diluted solution was administered to a rat through a polyethylene tube inserted into a femoral artery. The changes in blood flow rate (BF), blood pressure (BP), heart rate (HR) were observed, and the average of 4 experiments were shown in FIG. 1.

The mark [5] stands for this setting: Table 1, read-out: changing rate of blood pressure.
The mark [6] stands for this setting: Table 1, read-out: changing rate of heart rate.
Setting [7] is: mouse, in vivo, IV, male mice, read-out: LD50.
The mark [8] stands for this setting: mouse, in vivo, PO, male mice, read-out: LD50.
Where [9] appears, read: mouse, in vivo, IP, male mice, read-out: LD50.

Where two headings read alike, the source gives them in different places. Where only a bound is given, the exact number is not on record here.

Consider `CCCCCC(=O)CC[C@H]1[C@H](C)CC(=O)[C@@H]1CC(=O)CCCCC(=O)OCC` [Compound 18, 13,14-dihydro-6,15-diketo-11-dehydroxy-11R-methyl-PGE1 ethyl ester], for which the change in vivo at 1 mg/kg worked out at 18% in data set [1] (setting [5]), 17% in data set [1] (setting [6]) and 28% in data set [2]. The “recovering of blood pressure %” value was found to be 87% in data set [3] (0.5 mg/kg) and 119% in data set [3] (1.0 mg/kg). The “recovering of heart rate %” value in data set [3] (0.5 mg/kg) and in data set [3] (1.0 mg/kg) was 100% each time.
Turning to `CCCCCC(=O)CC[C@H]1[C@H](O)CC(=O)[C@@H]1C/C=C\CCCC(=O)OC` [Compound 21, 13,14-dihydro-15-keto-PGE2 methyl ester], the change in vivo at 1 mg/kg came out at 18% in data set [1] (setting [5]), 35% in data set [1] (setting [6]) and 29% in data set [2]. Further, the LD50 in “acute toxicity LD50” (setting [7]) is above 1000 mg/kg.
On to `CCCCCC(=O)CC[C@H]1[C@H](O)CC(=O)[C@@H]1CC(=O)CCCCC(=O)OCC` [Compound 7, 13,14-dihydro-6,15-diketo-PGE1 ethyl ester], for which the results for the change in vivo at 1 mg/kg in data set [1] (setting [5]) and in data set [2] were 5% and 31%, respectively. Besides, the “recovering of blood pressure %” value in data set [3] (0.5 mg/kg) came to 38%; in data set [3] (1.0 mg/kg) it was 63%. The “recovering of heart rate %” value was determined as 46% in data set [3] (0.5 mg/kg) and 62% in data set [3] (1.0 mg/kg).
On to `CCCCC(F)C(=O)CC[C@H]1[C@H](O)CC(=O)[C@@H]1C/C=C\CCCC(=O)OC` (stereo partly drawn) [Compound 37, 13,14-dihydro-15-keto-16R,S-fluoro-PGE2 methyl ester], for which the values for the change in vivo at 1 mg/kg in data set [1] (setting [5]) and in data set [1] (setting [6]) were 56% and 33%, respectively. Besides, in the data set “acute toxicity LD50” (setting [8]), the LD50 was above 500 mg/kg.
On to `CCOC(=O)CCCCC(=O)C[C@H]1C(=O)C[C@@H](O)[C@@H]1CCC(=O)CCCC(C)C` [Compound 15, 13,14-dihydro-6,15-diketo-19-methyl-PGE1 ethyl ester], for which the change in vivo at 1 mg/kg in data set [1] (setting [5]) worked out at 12%; in data set [1] (setting [6]), 19%; in data set [2], 26%. Also, in data set [4] (FIG. 1a), the “change in blood flow rate (BF) in carotid” value is “extremely increase”. Moreover, in data set [4] (FIG. 1b), the “change in blood pressure (BP)” value is listed as “extremely increase”. In data set [4] (FIG. 1c), the “change in heart rate (HR)” value was “extremely increase”. For the same compound, the “recovering of blood pressure %” value in data set [3] (0.5 mg/kg) is listed as 39%; in data set [3] (1.0 mg/kg), 68%. Also, the “recovering of heart rate %” value in data set [3] (0.5 mg/kg) came out at 62%; in data set [3] (1.0 mg/kg) it was 100%. Besides, in the data set “acute toxicity LD50” (setting [7]), the 50% lethal dose (LD50) was above 300 mg/kg.
Turning to `CCCCCCCC(=O)CC[C@H]1[C@H](O)CC(=O)[C@@H]1CCCCCCC(=O)OC` [Compound 4, 13,14-dihydro-15-keto-20-ethyl-PGE1 methy ester], the change in vivo at 1 mg/kg in data set [1] (setting [5]) is 6%; in data set [1] (setting [6]) it was 33%; in data set [2], 48%.
For `CCCCC(F)C(=O)CC[C@H]1[C@H](O)CC(=O)[C@@H]1C/C=C\CCCC(=O)O` (stereo partly drawn) [Compound 36, 13,14-dihydro-15-keto-16R,S-fluoro-PGE2], the change in vivo at 1 mg/kg was determined as 33% in data set [1] (setting [5]) and 32% in data set [1] (setting [6]). The LD50 in the data set “acute toxicity LD50” (setting [8]) was above 500 mg/kg.
On to `CCCCCC(=O)CC[C@H]1[C@H](O)CC(=O)[C@@H]1CC(=O)CCCCC(=O)O` [Compound 5, 13,14-dihydro-6,15-diketo-PGE1, reference compound], for which the change in vivo at 1 mg/kg is -4% in data set [1] (setting [5]), 0% in data set [1] (setting [6]) and 4% in data set [2].
Take `COCCCCCC(=O)CC[C@H]1[C@H](O)CC(=O)[C@@H]1C/C=C\CC=CC(=O)OC` [Compound 46, 13,14-dihydro-15-keto-20-methoxy-Δ^2 -PGE2 methyl ester]: the change in vivo at 1 mg/kg in data set [1] (setting [5]) was determined as 5%; in data set [1] (setting [6]), 13%; in data set [2], 10%.
Take `CCCCC(F)C(=O)CC[C@H]1[C@H](C)CC(=O)[C@@H]1C/C=C\CCCC(=O)OCC` (stereo partly drawn) [Compound 40, 13,14-dihydro-15-keto-16R,S-fluoro-11-dehydroxy-11R-methyl-PGE2 ethyl ester]: the change in vivo at 1 mg/kg in data set [1] (setting [5]) came out at 17%; in data set [1] (setting [6]), 27%; in data set [2] it was 16%.
As for `CCCCCC(=O)CC[C@H]1[C@H](O)CC(=O)[C@@H]1C/C=C\CCCC(=O)OCC` [Compound 22, 13,14-dihydro-15-keto-PGE2 ethyl ester], the results for the change in vivo at 1 mg/kg in data set [1] (setting [5]), in data set [1] (setting [6]) and in data set [2] were 5%, 11% and 28%, respectively. Further, the “recovering of blood pressure %” value in data set [3] (0.5 mg/kg) is given as 32%; in data set [3] (1.0 mg/kg), 74%. Moreover, the “recovering of heart rate %” value was found to be 50% in data set [3] (0.5 mg/kg) and 63% in data set [3] (1.0 mg/kg). Further, the LD50 in the data set “acute toxicity LD50” (IP, female mice) is above 500 mg/kg; in the data set “acute toxicity LD50” (PO, female mice) it was above 4000 mg/kg; in the data set “acute toxicity LD50” (SC, female mice), above 1000 mg/kg; in “acute toxicity LD50” (setting [9]), above 500 mg/kg; in “acute toxicity LD50” (setting [8]), above 4000 mg/kg; in “acute toxicity LD50” (mouse, in vivo, SC, male mice, read-out: LD50) it was above 1000 mg/kg.
Take `CCCCCC(=O)CC[C@H]1[C@H](O)CC(=O)[C@@H]1CCCCCCC(=O)OCC` [Compound 2, 13,14-dihydro-15-keto-PGE1 ethyl ester]: the figures for the change in vivo at 1 mg/kg in data set [1] (setting [5]), in data set [1] (setting [6]) and in data set [2] were 1%, 20% and 47%, respectively. The LD50 in “acute toxicity LD50” (setting [9]) was above 1000 mg/kg.

Values taken from patent US5169863A, “Hypersphyxia-causing methods” (K.K. Ueno Seiyaku Oyo Kenkyujo, priority 1988, dated 1992).
